From US10407467B2, “Polymyxin derivatives and their use in combination therapy together with different antibiotics” (priority 2013, dated 2019)
Numbered stars: 1 amine (or outer) side, 2 acyl side, 3 side chain; on linkers, the order of the positions; unused ones are H or OH. Bridge positions count the residues as written; N and C are the ends. Square brackets hold non-standard residues; d marks the D form. Peptide text beside a SMILES is read from it. Achc(trans-4) = O=C([C@H]1CC[C@H](N[*:1])CC1)[*:2]; Dab = NCC[C@H](N)C(=O)O

Tests used:
Format in all cases: cell-based
[1] = test system: Acinetobacter baumannii; test: MIC, compound in combination with a second agent (broth microdilution)
Method in brief: (§1)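 Compound and second agent (e.g. rifampicin) were combined 1:1 w/w, compound weighed as its TFA or sulphate salt. Inoculum was a direct colony suspension from 18-24 hour Mueller-Hinton agar at 0.5 McFarland. MIC is the total drug concentration; lower of duplicates reported, modal value when tested repeatedly.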

[2] = test system: Klebsiella pneumoniae; test: as above
Method in brief: as §1

[3] = test system: Pseudomonas aeruginosa; test: as above
Method in brief: as §1

[4] = test system: Escherichia coli; test: as above
Method in brief: as §1

[5] = test system: Acinetobacter baumannii; test: MIC, sole activity (no second agent); conditions: Second Agent none (Table 7B, by row order)
Method in brief: (§2)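 Inoculum: direct colony suspension (18-24 h MH agar), 0.5 McFarland. Medium: cation-adjusted MHB. Up to 4 strains/species; reported relative to Polymyxin B.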

[6] = test system: Klebsiella pneumoniae; test: MIC, sole activity (no second agent)
Method in brief: as §2

[7] = test system: Pseudomonas aeruginosa; test: MIC, sole activity (no second agent)
Method in brief: as §2

[8] = test system: Escherichia coli; test: MIC, sole activity (no second agent)
Method in brief: as §2

[9] = 1:1 combination with Ciprofloxacin (by row order), total drug concentration
[10] = 1:1 combination with Ciprofloxacin, total drug concentration
[11] = 1:1 combination with Tigecycline, total drug concentration
[12] = 1:1 combination with Vancomycin, total drug concentration
[13] = Second Agent none (Table 7B, by row order)

CC(C)C[C@@H]1NC(=O)[C@@H](Cc2ccccc2)NC(=O)[C@H](CCN)NC(=O)[C@@H](NC(=O)[C@H](CCN)NC(=O)[C@@H](NC(=O)[C@H]2CC[C@H](N)CC2)[C@@H](C)O)CCNC(=O)[C@H]([C@@H](C)O)NC(=O)[C@H](CCN)NC(=O)[C@H](CCN)NC1=O [Example 17, Trans-4-aminocyclohexane-carbonyl polymyxin B nonapeptide] (H-[Achc(trans-4)]T[Dab][Dab][Dab][dF]L[Dab][Dab]T; lactam 4-C)
MIC A. baumannii ATCC BAA-747 ([1]; 1:1 (wt:wt) combination with Rifampicin, MIC = total drug concentration, strain ATCC BAA-747): 0.125 micrograms/mL
MIC A. baumannii CCUG57249 ([1]; 1:1 (wt:wt) combination with Rifampicin, MIC = total drug concentration, strain CCUG57249): <0.06 micrograms/mL
MIC A. baumannii NCTC 13423 ([1]; 1:1 (wt:wt) combination with Rifampicin, MIC = total drug concentration, strain NCTC 13423): ≤0.06 micrograms/mL
MIC A. baumannii NCTC 13424 ([1]; 1:1 (wt:wt) combination with Rifampicin, MIC = total drug concentration, strain NCTC 13424): <0.06 micrograms/mL
MIC A. baumannii NCTC 13424 [1, 9]: 0.5 micrograms/mL
MIC K. pneumoniae ATCC 4352 ([2]; 1:1 (wt:wt) combination with Rifampicin, MIC = total drug concentration, strain ATCC 4352): 0.125 micrograms/mL
MIC K. pneumoniae ATCC-BAA-2146 ([2]; 1:1 (wt:wt) combination with Rifampicin, MIC = total drug concentration, strain ATCC-BAA-2146): 0.125 micrograms/mL
MIC K. pneumoniae CCUG-59348 ([2]; 1:1 (wt:wt) combination with Rifampicin, MIC = total drug concentration, strain CCUG-59348): 2 micrograms/mL
MIC K. pneumoniae NCTC 13438 ([2]; 1:1 (wt:wt) combination with Rifampicin, MIC = total drug concentration, strain NCTC 13438): 0.25 micrograms/mL
MIC K. pneumoniae ATCC 4352 [2, 9]: ≤0.06 micrograms/mL
MIC K. pneumoniae CCUG 59348 [2, 10]: >32 micrograms/mL
MIC K. pneumoniae NCTC 13442 [2, 10]: 1 micrograms/mL
MIC K. pneumoniae CCUG 59348 [2, 11]: >32 micrograms/mL
MIC K. pneumoniae NCTC 13442 [2, 11]: 16 micrograms/mL
MIC K. pneumoniae CCUG 59348 [2, 12]: >32 microgram/mL
MIC K. pneumoniae CCUG 59626 [2, 12]: 0.25 microgram/mL
MIC K. pneumoniae NCTC 13442 [2, 12]: 32 microgram/mL
MIC K. pneumoniae ATCC BAA-1706 ([2]; K. pneumoniae ATCC BAA-1706, 1:1 combination with Meropenem, total drug concentration): 4 micrograms/mL
MIC K. pneumoniae CCUG 59348 ([2]; K. pneumoniae CCUG 59348, 1:1 combination with Meropenem, total drug concentration): >32 micrograms/mL
MIC K. pneumoniae NCTC 13442 ([2]; K. pneumoniae NCTC 13442, 1:1 combination with Meropenem, total drug concentration): 16 micrograms/mL
MIC P. aeruginosa ATCC 27853 ([3]; 1:1 (wt:wt) combination with Rifampicin, MIC = total drug concentration, strain ATCC 27853): 0.125 micrograms/mL
MIC P. aeruginosa ATCC CRM-9027 ([3]; 1:1 (wt:wt) combination with Rifampicin, MIC = total drug concentration, strain ATCC CRM-9027): 0.125 micrograms/mL
MIC P. aeruginosa ATCC-47 ([3]; 1:1 (wt:wt) combination with Rifampicin, MIC = total drug concentration, strain ATCC-47): 0.125 micrograms/mL
MIC P. aeruginosa CCUG 59626 ([3]; 1:1 (wt:wt) combination with Rifampicin, MIC = total drug concentration, strain CCUG 59626): 0.125 micrograms/mL
MIC P. aeruginosa ATCC 27853 [3, 9]: ≤0.06 micrograms/mL
MIC P. aeruginosa CCUG 59626 [3, 9]: 0.5 micrograms/mL
MIC P. aeruginosa CCUG 59626 [3, 11]: 0.25 micrograms/mL
MIC P. aeruginosa CCUG 59626 ([3]; P. aeruginosa CCUG 59626, 1:1 combination with Meropenem, total drug concentration): 0.5 micrograms/mL
MIC E. coli ATCC25922 ([4]; 1:1 (wt:wt) combination with Rifampicin, MIC = total drug concentration, strain ATCC25922): ≤0.06 micrograms/mL
MIC E. coli NCTC9001 ([4]; 1:1 (wt:wt) combination with Rifampicin, MIC = total drug concentration, strain NCTC9001): 0.125 micrograms/mL
MIC E. coli ATCC25922 [4, 10]: ≤0.06 micrograms/mL
MIC E. coli CCUG 59342 [4, 10]: 0.5 micrograms/mL
MIC E. coli NCTC9001 [4, 10]: ≤0.06 micrograms/mL
MIC E. coli NCTC9001 [4, 11]: 16 micrograms/mL
MIC E. coli NCTC9001 [4, 12]: 16 microgram/mL
MIC E. coli NCTC9001 ([4]; E. coli NCTC9001, 1:1 combination with Meropenem, total drug concentration): 0.25 micrograms/mL
MIC A. baumannii NCTC 13424 [5]: 4 micrograms/mL
MIC K. pneumoniae CCUG 59348 ([6]; K. pneumoniae CCUG 59348, second agent none): >32 micrograms/mL
MIC K. pneumoniae NCTC 13442 ([6]; K. pneumoniae NCTC 13442, second agent none): >32 micrograms/mL
MIC K. pneumoniae CCUG 59348 ([6]; Second Agent none (Table 7A)): >32 microgram/mL
MIC K. pneumoniae CCUG 59626 ([6]; Second Agent none (Table 7A)): 0.25 microgram/mL
MIC K. pneumoniae NCTC 13442 ([6]; Second Agent none (Table 7A)): >32 microgram/mL
MIC K. pneumoniae CCUG 59348 ([6]; Second Agent none (Table 7B)): >32 micrograms/mL
MIC K. pneumoniae NCTC 13442 ([6]; Second Agent none (Table 7B)): >32 micrograms/mL
MIC K. pneumoniae ATCC 4352 [6, 13]: 0.125 micrograms/mL
MIC K. pneumoniae CCUG 59348 ([6]; Second Agent none (Table 7C)): >32 micrograms/mL
MIC K. pneumoniae NCTC 13442 ([6]; Second Agent none (Table 7C)): >32 micrograms/mL
MIC K. pneumoniae ATCC 4352 ([6]; in the absence of Rifampicin, strain ATCC 4352): 0.125 micrograms/mL
MIC K. pneumoniae ATCC-BAA2146 ([6]; in the absence of Rifampicin, strain ATCC-BAA2146): 8 micrograms/mL
MIC K. pneumoniae CCUG-59348 ([6]; in the absence of Rifampicin, strain CCUG-59348): >32 micrograms/mL
MIC K. pneumoniae NCTC-13438 ([6]; in the absence of Rifampicin, strain NCTC-13438): 32 micrograms/mL
MIC P. aeruginosa CCUG 59626 ([7]; P. aeruginosa CCUG 59626, second agent none): 0.25 micrograms/mL
MIC P. aeruginosa ATCC 27853 [7, 13]: 0.125 micrograms/mL
MIC P. aeruginosa CCUG 59626 [7, 13]: 0.25 micrograms/mL
MIC P. aeruginosa CCUG 59626 ([7]; Second Agent none (Table 7C)): 0.25 micrograms/mL
MIC P. aeruginosa ATCC 27853 ([7]; in the absence of Rifampicin, strain ATCC27853): 0.125 micrograms/mL
MIC P. aeruginosa CCUG 59626 ([7]; in the absence of Rifampicin, strain CCUG 59626): 0.25 micrograms/mL
MIC E. coli CCUG 59342 ([8]; Second Agent none (Table 7B)): 0.25 micrograms/mL
MIC E. coli NCTC9001 ([8]; Second Agent none (Table 7B)): 16 micrograms/mL
MIC E. coli ATCC25922 ([8]; in the absence of Rifampicin, strain ATCC25922): 2 micrograms/mL
MIC E. coli NCTC9001 ([8]; in the absence of Rifampicin, strain NCTC9001): 16 micrograms/mL
